Reference: patent EP0423524A2, “Propiophenone derivatives and their preparation and pharmaceutical use” (MARUHO Co., Ltd., priority 1989, dated 1991)
Where a name gives a salt, the structure may show the parent alone.

Columns and labels:
Assay type in all cases: in vivo
Male Slc-ddy mice [1] = test: Inhibitory effect on the motor coordination (rotating rod test); settings: for Inhibitory effect on motor coordination Effect: 300 - 600 mg/10 ml/kg oral, 30 min, compared with eperisone hydrochloride; for Inhibitory effect on motor coordination Durability / ED50 / inhibitory effect on the motor coordination compared with eperisone hydrochloride: oral; for ED50: Mus musculus, 0.5 h, rotating rod 30 min after administration, falling off within 60 s counted as positive, 95% confidence limit in brackets, read-out: ED₅₀ values for the inhibitory effect on the motor coordination
Description: Male Slc-ddy mice of 20 - 25 g (5 weeks old) were used in groups of 7 - 10. The test compounds were used dissolved or suspended in 0.5 % CMC or 0.5 % Tween 80 solution. Each test compound (300 - 600 mg/10 ml/kg) was orally administered to the mice, and after 30 min the mice were put on a 3-cm diameter rod rotating at a speed of 10 min⁻¹ in a direction opposite to the rotation direction, and the time of staying on it was measured to a maximum of 180 s. Those falling off of the rotating rod within 60 s were judged as having an inhibitory effect on the motor coordination and, with the number of cases as index, comparison was made with the reference compound (eperisone hydrochloride).
The mice were trained in advance to be able to stay on the rotating rod for more than 300 s, and those capable of staying on it for more than 250 s immediately before testing were used.

Male Slc-ddy mice [2] = test: Anti-nicotinic effect (survival after intravenous nicotine bitartrate); settings: for anti-nicotinic effect compared with eperisone hydrochloride / Anti-nicotinic effect Effect: 100 mg/10 ml/kg oral; for Anti-nicotinic effect Effect: 30 min, compared with eperisone hydrochloride; for ED50: Mus musculus, 0.5 h, oral, nicotine bitartrate 3 mg/10 ml/kg i.v. after 30 min, Litchfield-Wilcoxon, 95 % confidence limit in brackets, read-out: ED₅₀ values for the anti-nicotinic effect
Description: Experimental Method of Male Slc-ddy mice/30 - 35 g (6 weeks old) were used as test animals in groups of 7 - 10. The test compounds (100 mg/10 ml/kg) were orally administered to the mice, and after 30 min, nicotine bitartrate (3 mg/10 ml/kg) was administered intravenously, and the number of animals killed due to tonic convulsion was counted. The surviving animals were judged as having an anti-nicotinic effect, and with the number thereof as index the comparison concerning the anti-nicotinic effect was made with the reference compound (eperisone hydrochloride).

Male Slc-ddy mice [3] = test: Anti-strychnine effect (time from tonic convulsions to death after subcutaneous strychnine nitrate); settings: for ED50: Mus musculus, po, 0.5 h, read-out: ED₅₀ values for the anti-strychnine effect; for anti-strychnine effect compared with eperisone hydrochloride / Anti-strychnine effect Effect: mice, 100 mg/10 ml/kg oral; for Anti-strychnine effect Effect: 30 min, compared with eperisone hydrochloride
Description: Strychnine is known to enhance reflex stimulation, among others, of spinal cord to induce convulsions. If this effect of strychnine can be suppressed by administration of any of the above-mentioned compounds, this compound is expected to have a central muscle relaxation effect.
Male Slc-ddy mice of 25 - 30 g (5 weeks old) were used in groups of 7 - 10.
The test compounds (100 mg/10 ml/kg) were orally administered to the mice, and after 30 min, 1.5 mg/10 ml/kg of strychnine nitrate was administered subcutaneously, and the time was measured from the occurence of tonic convulsions to the death of the animals. Cases in which this time was extended to 6 min or more were judged as corresponding to an anti-strychnine effect, and with the number of such cases as index, comparison was made with the reference compound (eperisone hydrochloride). […] The ED₅₀ values (95% confidence limit) for the anti-strychnine effect were determined by the Litchfield-Wilcoxon method and are shown in Table 3.

Acute toxicity test = settings: mouse, in vivo, po, mice, observation for 7 days, Litchfield-Wilcoxon, 95% confidence limit in brackets, read-out: LD₅₀ values (50% of lethal dose)
Description: Male ddy mice of 20-30 g were used as test animals in groups of 5-10. The test compounds were dissolved or suspended in 0.5 % Tween 80 aqueous solution, and orally administered to the mice. Observation was made for 7 days after administration. The LD₅₀ values (50% of lethal dose) (95% confidence limit) were determined by the Litchfield-Wilconxon method, and are shown in Table 4.

Structure (SMILES)	Inhibitory effect on motor coordination Effect (Male Slc-ddy mice [1])	Inhibitory effect on motor coordination Durability (Male Slc-ddy mice [1])	Anti-nicotinic effect Effect (Male Slc-ddy mice [2])	also measured
CCc1ccc(C(=O)C(C)CN2CCN(CC(C)C(=O)c3ccc(CC)cc3)CC2)cc1.Cl.Cl (stereo not drawn) [Compound 1, N,N'-bis[2-(4-ethylbenzoyl)-propyl]-piperazine dihydrochloride]	0	-		
CCc1ccc(C(=O)C(C)Cn2ccnc2)cc1 (stereo not drawn) [Compound 2, 1-(4-ethylphenyl)-3-(1H-imidazol-1-yl)-2-methylpropan-1-one]	0		◎	anti-nicotinic effect compared with eperisone hydrochloride (Male Slc-ddy mice [2]): stronger anti-nicotinic effect than eperisone hydrochloride; ED50 (Male Slc-ddy mice [2]): 26 mg/kg; ED50 (Male Slc-ddy mice [3]): 135 mg/kg; anti-strychnine effect compared with eperisone hydrochloride (Male Slc-ddy mice [3]): stronger anti-strychnine effect than eperisone hydrochloride; Anti-strychnine effect Effect (Male Slc-ddy mice [3]): ◎; ED50 (Male Slc-ddy mice [1]): 200 mg/kg; inhibitory effect on the motor coordination compared with eperisone hydrochloride (Male Slc-ddy mice [1]): stronger inhibitory effect on the motor coordination than eperisone hydrochloride; LD50 at 168 h (Acute toxicity test): 218 mg/kg
CC(Cn1ccnc1)C(=O)c1ccc(Cl)cc1 (stereo not drawn) [Compound 3, hydrochloride]	0		0	
CCc1ccc(C(=O)C(CC)CN2CCCCC2)cc1.Cl (stereo not drawn) [Compound 4, 2-ethyl-1-(4-ethylphenyl)-3-piperidinopropan-1-one hydrochloride]	0	-	0	
CCc1ccc(C(=O)C(CN2CCCCC2)C(C)C)cc1 (stereo not drawn) [Compound 5, 1-(4-ethylphenyl)-2-isopropyl-3-piperidinopropan-1-one]	0	-	0	
CCc1ccc(C(=O)C(C)(C)CN2CCCCC2)cc1 [Compound 6, 1-(4-ethylphenyl)-2,2-dimethyl-3-piperidinopropan-1-one]	◎		0	
CCc1ccc(C(=O)C(CN2CCCCC2)c2ccccc2)cc1.Cl (stereo not drawn) [Compound 7, 1-(4-ethylphenyl)-2-phenyl-3-piperidinopropan-1-one hydrochloride]	0	-	0	
CC(Cn1ccnc1)C(=O)c1ccccc1 (stereo not drawn) [Compound 8, 3-(1H-imidazol-1-yl)-2-methyl-1-phenyl-propan-1-one]	0			
CCCc1ccc(C(=O)C(C)Cn2ccnc2)cc1 (stereo not drawn) [Compound 9, 3-(1H-imidazol-1-yl)-2-methyl-1-(4-n-propylphenyl)-propan-1-one]	0		◎	
CC(Cn1ccnc1)C(=O)c1ccc(C(C)C)cc1 (stereo not drawn) [Compound 10, 3-(1H-imidazol-1-yl)-1-(4-isopropylphenyl)-2-methylpropan-1-one]	0		0	
CC(Cn1ccnc1)C(=O)c1ccc(C(C)(C)C)cc1 (stereo not drawn) [Compound 11, 1-(4-t-butylphenyl)-3-(1H-imidazol-1-yl)-2-methylpropan-1-one]	0			Anti-strychnine effect Effect (Male Slc-ddy mice [3]): 0
CC(Cn1ccnc1)C(=O)c1ccc(-c2ccccc2)cc1 (stereo not drawn) [Compound 12, 1-(4-biphenyl)-3-(1H-imidazol-1-yl)-2-methylpropan-1-one]		-	◎	
Cc1ccc(C(=O)C(C)Cn2ccnc2)c(C)c1.Cl (stereo not drawn) [Compound 13, 3-(1H-imidazol-1-yl)-2-methyl-1-(2,4-dimethylphenyl)-propan-1-one hydrochloride]	0	-	◎	
Cc1ccc(C(=O)C(C)Cn2ccnc2)cc1C (stereo not drawn) [Compound 14, 3-(1H-imidazol-1-yl)-2-methyl-1-(3,4-dimethylphenyl)-propan-1-one]	0		◎	anti-nicotinic effect compared with eperisone hydrochloride (Male Slc-ddy mice [2]): stronger anti-nicotinic effect than eperisone hydrochloride; ED50 (Male Slc-ddy mice [2]): 32 mg/kg; ED50 (Male Slc-ddy mice [3]): 33 mg/kg; anti-strychnine effect compared with eperisone hydrochloride (Male Slc-ddy mice [3]): stronger anti-strychnine effect than eperisone hydrochloride; Anti-strychnine effect Effect (Male Slc-ddy mice [3]): ◎; ED50 (Male Slc-ddy mice [1]): 100 mg/kg; inhibitory effect on the motor coordination compared with eperisone hydrochloride (Male Slc-ddy mice [1]): stronger inhibitory effect on the motor coordination than eperisone hydrochloride; LD50 at 168 h (Acute toxicity test): 209 mg/kg
CC(Cn1ccnc1)C(=O)c1ccc2ccccc2c1 (stereo not drawn) [Compound 15, 3-(1H-imidazol-1-yl)-2-methyl-1-(2-naphthyl)-propan-1-one]	0	-	◎	Anti-strychnine effect Effect (Male Slc-ddy mice [3]): ◎; ED50 (Male Slc-ddy mice [1]): 152 mg/kg; inhibitory effect on the motor coordination compared with eperisone hydrochloride (Male Slc-ddy mice [1]): stronger inhibitory effect on the motor coordination than eperisone hydrochloride
Cc1ccc(C(=O)C(C)Cn2ccnc2)cc1 (stereo not drawn) [Compound 16, 3-(1H-imidazol-1-yl)-2-methyl-1-(4-methylphenyl)-propan-1-one]	◎		◎	
CCc1ccc(C(=O)CCn2ccnc2)cc1 [Compound 17, 1-(4-ethylphenyl)-3-(1H-imidazol-1-yl)-propan-1-one]	○	-	○	
CCc1ccc(C(=O)C(CC)Cn2ccnc2)cc1.Cl (stereo not drawn) [Compound 18, 2-ethyl-1-(4-ethylphenyl)-3-(1H-imidazol-1-yl)-propan-1-one hydrochloride]	◎		◎	
CCc1ccc(C(=O)C(Cn2ccnc2)c2ccccc2)cc1 (stereo not drawn) [Compound 19, 1-(4-ethylphenyl)-3-(1H-imidazol-1-yl)-2-phenylpropan-1-one]	◎	-	◎	
CC(Cn1ccnc1)C(=O)c1ccc2c(c1)Cc1ccccc1-2 (stereo not drawn) [Compound 20, 1-(9H-fluoren-2-yl)-3-(1H-imidazol-1-yl)-2-methylpropan-1-one]	◎	-	◎	Anti-strychnine effect Effect (Male Slc-ddy mice [3]): ○
CCc1ccc(C(=O)C(C)n2ccnc2)cc1.Cl (stereo not drawn) [Compound 21, 1-(4-ethylphenyl)-2-(1H-imidazol-1-yl)-propan-1-one hydrochloride]		-	◎	
CCc1ccc(C(O)C(C)Cn2ccnc2)cc1 (stereo not drawn) [Compound 22, 1-(4-ethylphenyl)-3-(1H-imidazol-1-yl)-2-methylpropan-1-ol]	◎		◎	Anti-strychnine effect Effect (Male Slc-ddy mice [3]): ○; inhibitory effect on the motor coordination compared with eperisone hydrochloride (Male Slc-ddy mice [1]): stronger inhibitory effect on the motor coordination than eperisone hydrochloride
CCc1ccc(C2(C(C)Cn3ccnc3)OCCO2)cc1 (stereo not drawn) [Compound 23]	◎		◎	anti-nicotinic effect compared with eperisone hydrochloride (Male Slc-ddy mice [2]): stronger anti-nicotinic effect than eperisone hydrochloride; ED50 (Male Slc-ddy mice [2]): 46 mg/kg; ED50 (Male Slc-ddy mice [3]): 155 mg/kg; anti-strychnine effect compared with eperisone hydrochloride (Male Slc-ddy mice [3]): stronger anti-strychnine effect than eperisone hydrochloride; Anti-strychnine effect Effect (Male Slc-ddy mice [3]): ○; ED50 (Male Slc-ddy mice [1]): 210 mg/kg; inhibitory effect on the motor coordination compared with eperisone hydrochloride (Male Slc-ddy mice [1]): stronger inhibitory effect on the motor coordination than eperisone hydrochloride; LD50 at 168 h (Acute toxicity test): 415 mg/kg
CCc1ccc(C(=O)C(CN2CCCC2)c2ccccc2)cc1.Cl (stereo not drawn) [Compound 24, 1-(4-ethylphenyl)-2-phenyl-3-(pyrrolidin-1-yl)-propan-1-one hydrochloride]	○		○	
CC(C)(CN1CCCC1)C(=O)c1ccc(Cl)cc1 [Compound 25, 1-(4-chlorophenyl)-2,2-dimethyl-3-(pyrrolidin-1-yl)-propan-1-one]	◎		○	
CCc1ccc(C(=O)C(C)Cn2ccnc2C)cc1 (stereo not drawn) [Compound 26, 1-(4-ethylphenyl)-2-methyl-3-(2-methyl-1H-imidazol-1-yl)-propan-1-one]	◎	-	◎	
CCc1ccc(C(=O)C(C)Cn2cncn2)cc1 (stereo not drawn) [Compound 27, 1-(4-ethylphenyl)-2-methyl-3-(1H-1,2,4-triazol-1-yl)-propan-1-one]	○	-	○	
